Laboratory results taken from publication PMC9917099, “The Mycotoxin Patulin Inhibits the Mitochondrial Carnitine/Acylcarnitine Carrier (SLC25A20) by Interaction with Cys136 Implications for Human Health” (International Journal of Molecular Sciences, 2023).
Where “and” joins values, the source holds several entries; their conditions need not be identical. Equal entries are not always repeated.

What was measured:
recombinant human WT CAC = molecular target: T1, recombinant human WT CAC (Homo sapiens, UniProt O43772); experiment: [3H]-carnitine/carnitine antiport in proteoliposomes with recombinant human WT CAC; format: biochemical; conditions: PAT 30 min, read-out: IC50 of CAC WT inhibition
T1 construct: made in house; host or cells: E. coli C0214 (pMW7, inclusion bodies)
T1 sequence (O43772 1-301): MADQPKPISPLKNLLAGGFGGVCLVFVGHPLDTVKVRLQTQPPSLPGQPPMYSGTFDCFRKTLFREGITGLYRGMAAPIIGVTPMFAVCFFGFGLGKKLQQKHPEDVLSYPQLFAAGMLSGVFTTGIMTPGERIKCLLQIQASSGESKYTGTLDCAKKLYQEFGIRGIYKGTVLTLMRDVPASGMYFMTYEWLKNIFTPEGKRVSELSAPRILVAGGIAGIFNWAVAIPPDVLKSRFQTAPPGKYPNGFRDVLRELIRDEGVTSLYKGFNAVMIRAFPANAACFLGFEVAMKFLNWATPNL
Method: (§1) To shed light on the interaction between PAT and CAC and verify if specific Cys residues were involved, transport experiments on the recombinant rat and human WT CAC and CAC’s rat Cys mutants were performed. As in the case of the native protein, transport activities were measured as [^3H]-carnitine/carnitine antiport in proteoliposomes. […] The PAT inhibition of the WT recombinant protein was only slightly greater compared to the native protein, although compounds and other molecular systems that affect the mycotoxin binding to the native CAC were absent (see above). For identifying the residues involved in the PAT interaction, site-directed Cys mutants were tested for inhibition (Figure 2). […]
(§2) Figure 2 Dose-response analysis of the PAT inhibition of the CAC recombinant proteins. […] The data are expressed as a percentage of the controls (no PAT addition) and are means ± SD of three independent experiments. […]
(§3) For the transport assay, 550 μL of proteoliposomes were passed through a Sephadex G-75 column in order to remove the external substrate. […] After finishing the transport reaction, the external radiolabel substrate was removed by gel filtration chromatography (Sephadex G-75), and the intraliposomal radioactivity was measured by liquid scintillation. Transport was measured at 25 °C. […] Transport rates were measured in 10 min, i.e., within the initial linear range of the time course.

rat CAC mutant C155S = molecular target: T2, rat CAC mutant C155S (Rattus norvegicus, UniProt P97521, C155S); experiment: Carnitine antiport in proteoliposomes, CAC mutant C155S; format: biochemical
T2 construct: made in house; host or cells: E. coli C0214 (pMW7, inclusion bodies)
T2 sequence (P97521 1-301 C155S): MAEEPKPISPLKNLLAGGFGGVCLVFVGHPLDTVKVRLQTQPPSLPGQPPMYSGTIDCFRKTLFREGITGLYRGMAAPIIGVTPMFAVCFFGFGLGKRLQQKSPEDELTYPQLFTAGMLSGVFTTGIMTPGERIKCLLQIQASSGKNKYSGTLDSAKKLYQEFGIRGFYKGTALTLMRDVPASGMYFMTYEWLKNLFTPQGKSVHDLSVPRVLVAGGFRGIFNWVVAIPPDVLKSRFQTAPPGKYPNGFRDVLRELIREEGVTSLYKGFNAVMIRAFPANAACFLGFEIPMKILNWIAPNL
Method: as §1, §2, §3

cell viability = test system: cell viability; set-up: method as in PMID 25098256; conditions: 60 µM; cited from earlier work

For O=C1C=C2C(=CCOC2O)O1 (stereo not drawn) [PAT, 4-hydroxy-4H-furo [3,2c] pyran-2 [6H] -one], the IC50 (recombinant human WT CAC) is given as 50 µM and ~50 µM, the IC50 (rat CAC mutant C155S) is given as “comparable to the WT” and the “toxicity for cell viability” value (cell viability) is given as “nontoxic range”.
